From patent US20140045807A2, “THE USE OF 3-METHOXY-PREGNENOLONE FOR THE PREPARATION OF A DRUG FOR TREATING A TRAUMATIC BRAIN INJURY” (priority 2004, published 2014)

Experiments:
PC12 cells = assay: Neuritic growth / sprouting in PC12 cells with NGF; format: cell-based, rat; settings: increasing concentrations, 2, 5 and 8 days of culture (FIG. 3)
Protocol: Each molecule was tested in three culture wells. Measurements were taken for 200 cells per well using Scion Image software.
Neurite (neurite) length was measured for 200 cells per well after 2, 5, and 8 days of culture.
Stimulation of neuritic sprouting is conducted on PC12 cells differentiated in the presence of NGF (10 ng/ml) and the steroid being tested (30 μM) for 3 days. For each condition, the average length of the longest 200 neurites in each cell is measured simultaneously for 3 cultures.

MAP2 = assay: Western blot of MAP2 in cortex and hippocampus after CCI; format: in vivo, rat; settings: 20 mg/kg, first injection 2 h post-trauma, day 35, injured and non-injured cortex and hippocampus
Protocol: FIG. 19: MAP-2 expression, 35 days after TBI, in the left-uninjured and right-injured hemispheres (A: cortex and B: hippocampus) of CCI-injured animals, receiving either vehicle (D0) or MAP4343 (D1: 10 mg/kg and D2: 20 mg/kg), 2 h after injury.
(§1) Samples were analyzed by Western-blot at day 35 post-trauma (D35) to evaluate the effects of MAP4343 on: MAP2 (the target of MAP4343 and a modulator of microtubule function), the post-synaptic markers PSD95 and spinophilin, the pre-synaptic marker synaptophysin, and the axonal growth/integrity marker GAP43.
(§2) Western blot was performed on cortex and hippocampus of TBI-injured animals receiving the first injection of MAP4343 (at 10 mg/kg or 20 mg/kg) or vehicle (sesame oil) 2 h after injury.
(§3) The expression level of various neuronal brain markers of plasticity was measured at day 35 post-trauma by western-blots in the cortex and hippocampus of left uninjured and right injured cerebral hemispheres of CCI traumatized animals receiving either vehicle (sesame oil, CCI-D0) or 3-methoxy-PREG (MAP4343) at 10 mg/kg (CCI-D1) or 20 mg/kg (CCI-D2), with first MAP4343 injection 2 h post-trauma.

[1] = target: Glucorticoid Receptor (GR) (Homo sapiens, UniProt P04150); assay: Radioligand binding assay, GR; settings: MAP4343 10 μM; 3 nM [^3H] Dexamethasone; Human HeLa S3 cells
Protocol: (§4) Binding affinity of 3-methoxy-PREG (MAP4343) for receptors of steroid hormones was evaluated using radioligand binding assays.

[2] = tested on: Sprague Dawley rats, recognition memory; assay: Novel object recognition test (NOR); format: in vivo, rat
Protocol: FIG. 14: 3-methoxy-PREG (43B) enhanced retention of recognition memory in naïve animals and recovered recognition memory deficits in social isolated rats. (A) Sesame Oil treated rats cannot discriminate between the novel and the familiar object following a 4 h inter trial interval (ITI) time. In contrast, 43B (10 mg/kg subcutaneously) treated rats retain the ability to discriminate between the novel and the familiar object. Mean±SEM, n=11-12 per group. ***p<0.001 vs sesame oil (T-test). (B) Isolated animals treated with sesame oil cannot discriminate between the novel and the familiar object following […], while grouped (control) rats clearly discriminate. […]
Cognitive dysfunction, including impaired recognition memory, are common features in depressed patients (Egeland et al., Scand. J. Psychol. 2005). […] Recognition memory was assessed using the NOR test which is a two-trial test of recognition memory based on the spontaneous preference of rats for novelty (Ennaceur and Delacour, Behav. Brain. Res. 1988; Bianchi et al., EJN 2006). […] The ability of the animals to discriminate between the novel and the familiar object is then expressed as: D2-INDEX: [novel object (sec)-familiar object (sec)]/[novel object (sec)+familiar object (sec)] […]

[3] = In vivo toxicity, daily injection for one month; set-up: species or system rat; settings: rats, daily injection for one month of 48 mg/kg
[4] = target: Mineralocorticoid Receptor (MR) (Rattus norvegicus, UniProt P22199); assay: Radioligand binding assay, MR; settings: MAP4343 10 μM; 4.5 nM [^3H] D-Aldosterone; Wistar Rat kidney
Protocol: as §4

synaptophysin = assay: Western blot of synaptophysin in cortex and hippocampus after CCI; format: in vivo, rat; settings: 20 mg/kg, first injection 2 h post-trauma, day 35, injured hippocampus
Protocol: FIG. 22: Synaptophysin expression, 35 days after TBI, in the left-uninjured and right-injured hemispheres (A: cortex and B: hippocampus) of CCI-injured animals, receiving either vehicle (D0) or MAP4343 (D1: 10 mg/kg and D2: 20 mg/kg), 2 h after injury.
as §1, §2, §3

[5] = tested on: 80 different CNS neurotransmitters receptors; assay: Screen for in vitro affinity to 80 different CNS neurotransmitters receptors; format: binding
Source text: MAP4343 has been screened for in vitro affinity to 80 different CNS neurotransmitters receptors using various validated binding assays.

Sequence of Mineralocorticoid Receptor (MR) (P22199 whole entry): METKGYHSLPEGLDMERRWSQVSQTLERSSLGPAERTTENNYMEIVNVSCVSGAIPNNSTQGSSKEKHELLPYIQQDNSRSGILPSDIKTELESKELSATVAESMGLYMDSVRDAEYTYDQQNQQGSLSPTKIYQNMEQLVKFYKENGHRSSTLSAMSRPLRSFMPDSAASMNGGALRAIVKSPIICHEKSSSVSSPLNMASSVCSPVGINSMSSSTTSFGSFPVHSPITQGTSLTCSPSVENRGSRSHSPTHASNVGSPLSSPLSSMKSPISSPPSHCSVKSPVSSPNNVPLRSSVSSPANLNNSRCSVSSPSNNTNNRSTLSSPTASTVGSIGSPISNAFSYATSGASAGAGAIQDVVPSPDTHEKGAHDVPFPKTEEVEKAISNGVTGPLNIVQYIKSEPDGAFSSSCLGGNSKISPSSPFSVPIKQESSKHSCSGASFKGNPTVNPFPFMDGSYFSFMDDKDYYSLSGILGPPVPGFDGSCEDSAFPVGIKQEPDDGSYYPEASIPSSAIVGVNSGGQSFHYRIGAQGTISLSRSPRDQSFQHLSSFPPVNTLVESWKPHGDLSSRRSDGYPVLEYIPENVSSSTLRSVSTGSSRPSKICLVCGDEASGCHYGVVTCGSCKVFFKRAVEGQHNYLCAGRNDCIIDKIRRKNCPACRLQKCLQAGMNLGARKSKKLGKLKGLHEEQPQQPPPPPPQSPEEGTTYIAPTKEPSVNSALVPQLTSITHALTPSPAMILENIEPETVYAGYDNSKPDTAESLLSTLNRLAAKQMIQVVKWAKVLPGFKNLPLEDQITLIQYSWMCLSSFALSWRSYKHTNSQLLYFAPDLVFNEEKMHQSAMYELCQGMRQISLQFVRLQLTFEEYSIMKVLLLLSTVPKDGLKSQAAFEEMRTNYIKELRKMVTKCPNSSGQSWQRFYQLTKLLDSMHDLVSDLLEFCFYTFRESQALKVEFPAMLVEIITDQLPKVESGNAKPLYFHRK
Sequence of Glucorticoid Receptor (GR) (P04150 whole entry): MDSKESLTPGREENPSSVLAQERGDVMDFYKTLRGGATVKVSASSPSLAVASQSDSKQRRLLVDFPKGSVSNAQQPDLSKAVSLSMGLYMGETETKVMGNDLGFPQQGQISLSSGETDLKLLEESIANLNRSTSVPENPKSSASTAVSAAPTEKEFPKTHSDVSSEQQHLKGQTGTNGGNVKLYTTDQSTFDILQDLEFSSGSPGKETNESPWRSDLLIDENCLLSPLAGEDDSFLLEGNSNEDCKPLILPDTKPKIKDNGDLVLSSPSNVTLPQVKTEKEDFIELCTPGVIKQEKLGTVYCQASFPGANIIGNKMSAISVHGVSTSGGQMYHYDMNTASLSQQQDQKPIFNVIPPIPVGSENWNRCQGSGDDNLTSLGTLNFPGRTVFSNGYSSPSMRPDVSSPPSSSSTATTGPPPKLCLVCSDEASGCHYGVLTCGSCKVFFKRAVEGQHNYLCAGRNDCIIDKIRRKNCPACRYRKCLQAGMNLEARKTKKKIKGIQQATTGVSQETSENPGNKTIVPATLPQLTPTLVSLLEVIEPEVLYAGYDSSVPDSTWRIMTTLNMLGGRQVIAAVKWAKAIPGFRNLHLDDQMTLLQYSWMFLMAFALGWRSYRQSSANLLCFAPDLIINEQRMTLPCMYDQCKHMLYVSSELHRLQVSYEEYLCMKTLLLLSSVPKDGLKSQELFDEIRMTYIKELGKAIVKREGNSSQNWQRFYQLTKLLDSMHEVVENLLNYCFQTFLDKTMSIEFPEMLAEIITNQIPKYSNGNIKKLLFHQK

Compound: CO[C@H]1CC[C@@]2(C)C(=CC[C@H]3[C@@H]4CC[C@H](C(C)=O)[C@@]4(C)CC[C@@H]32)C1 [3-methoxy-PREG, 3β-methoxy-pregna-5-ene-20-one]
- increase in the length of neurites formed in the presence of NGF (PC12 cells): ≤ 500%
- MAP-2 expression (MAP2): strong increase
- % inhibition of specific binding [1]: < 25%
- discrimination of novel and familiar object, social isolated rats ([2]; 10 mg/kg subcutaneously 1 h before task, ITI of 1 h): efficiently discriminated between the familiar and the novel object
- discrimination of novel and familiar object, naïve animals ([2]; 10 mg/kg subcutaneously immediately after T1, ITI of 4 h): discriminated between the novel and the familiar object
- average weight and behavior [3]: affected neither average weight nor behavior
- % inhibition of specific binding [4]: < 25%
- Synaptophysin expression (synaptophysin): increase in Synaptophysin expression
- affinity for any tested receptor [5]: no significant affinity
